Values of other authors in patent US11856951B2, “Method for managing resistance to insecticidal traits and chemicals using pheromones” (Provivi, Inc., priority 2015, dated 2024).

Experiments:
[1] = system: H. armigera males; conditions: wind tunnel assays
[2] = system: mated female H. armigera; conditions: mated females
[3] = system: mated H. armigera
[4] = system: Female E. heros
[5] = system: virgin female H. zea

In the case of CCCC/C=C\CCCCCCCCCCO [Z11-16:OH], the “effect on male upwind flight” value [1] is listed as “inhibits male upwind flight”.
For CCCCCCCCCCCCCCCC(=O)O [C16:0], the electroantennogram response [2] is listed as “strong electroantennogram responses”.
In the case of O=Cc1ccccc1 [benzaldehyde], the “attractiveness of an oviposition substrate” value [3] is listed as “significantly increase the attractiveness”.
In the case of CCCCCCC=O [Heptanal], the “attractiveness of an oviposition substrate” value [3] is given as “significantly increase the attractiveness”.
In the case of CCCCCCCCCCCCCCCCCC(=O)O [C18:0], the electroantennogram response [2] is listed as “strong electroantennogram responses”.
In the case of CCCC(C)CCCC(C)CCCC(C)C(=O)OC (centres unmarked) [TMTD, methyl 2,6,10-trimethyltridecanoate], the attraction to lures [4] is listed as “attracted”.
In the case of CCCCCCCCCCCCCC(=O)O [C14:0], the electroantennogram response [2] is listed as “strong electroantennogram responses”.
In the case of C=C [ethylene], the “correlation of concentration with calling behaviour” value [5] is listed as “positively correlated”.
